Marks after values point to notes of the source that are not given here.
Tests used:
[1] = target: β2AR (Homo sapiens, UniProt P07550); experiment: Lipidic cubic phase (LCP) crystallization of agonist-bound β2AR; conditions: detergent present before incorporation into LCP
Text: LCP methods have proven useful for crystallizing membrane proteins, including G protein-coupled receptors (GPCRs). However, the process of incorporating membrane proteins from a detergent solubilized state into LCP can lead to denaturation of the protein.

[2] = system: M3 muscarinic receptor; experiment: [3H]N-methylscopolamine binding to purified M3 muscarinic receptor in amphiphiles/detergents; conditions: for Binding (counts per minute (CPM)) of [3H]NMS compared to the use of DDM alone: upon addition of the amphiphile, HEPES pH 7.5, 100 mM NaCl
Experimental: For FIG. 5, the samples (DDM, MNG-28, and MNG-14) were combined with HEPES pH 7.5 buffer in a 100 mM NaCl solution. […] Therefore, the amphiphilic compounds described herein, such as the MNG amphiphiles, provide new options for enhancing the function and analysis of various isolated and/or purified proteins and receptors.

[3] = system: human β2 adrenergic receptor-T4-lyosome fusion protein (β2AR-T4L); experiment: Thermal stabilization (Tm) of β2AR-T4L in amphiphile, normalized peak ratio 341 nm/356 nm; design: Tm: unit: °C; conditions: 250 × CMC; for Tm: β2AR-T4L
[4] = system: human β2 adrenergic receptor-T4-lyosome fusion protein (β2AR-T4L); experiment: as above; design: Tm: unit: °C; conditions: for Tm: β2AR-T4L
Text: FIG. 3 illustrates the results of comparing MNGs to MPAs at 10×CMC for stabilization efficacy of β2 adrenergic receptor-T4-lyosome fusion protein (β2AR-T4L), according to an embodiment of the invention.
FIG. 4 illustrates the results of comparing MNGs to MPAs at 50×CMC for stabilization efficacy of β2AR-T4L, according to an embodiment of the invention. Similar to FIG. 3, the horizontal dotted line extending from 50% on the y-axis in FIG. 4 indicates the melting temperature (Tm).
The branched amphiphiles of the invention have shown to have several advantageous properties that match or surpass those of many known amphiphiles. The branched nature provide improved stabilization, attributable to the dual saccharide chains, and improved solubilization, attributable to the dual hydrophobic tail groups. FIGS. 3 and 4 show a comparative study showing normalized peak ratios (341 nm/356 nm) for six different amphiphiles (illustrated in Schemes F and G) from 25° C. to 85° C., at 10×CMC and 50×CMC for human β2 adrenergic receptor-T4-lyosome fusion protein (β2AR-T4L).

[5] = Critical micelle concentration (CMC) by fluorescent dye uptake; format: physicochemical
Text: The Critical Micelle Concentrations (CMCs) of compounds of the invention can be determined by standard techniques known to those of skill in the art. For example, CMCs of the carbohydrate-based amphiphiles described herein can be determined by monitoring uptake of a fluorescent dye (e.g., a dye such as 1,6-diphenylhexatriene) with increasing detergent concentration, monitored by fluorescence spectroscopy.

[6] = system: R. capsulatus LHI-RC superassembly; experiment: R. capsulatus photosynthetic superassembly solubilization and purification assay (detergent classification); design: species or system Rhodobacter capsulatus; conditions: words printed in the Classification column instead of a class: behaviour of the amphiphile
Experimental: To begin the solubilization and purification process, frozen aliquots of R. capsulatus membranes were thawed, homogenized, and equilibrated to 32° C. for 30 minutes.
The membrane samples were allowed to incubate with the amphiphile for 30 minutes at 32° C. The solubilized material was then separated from the membrane debris in an ultracentrifuge at 315,000×g at 4° C. for 30 minutes. […] The tubes were then incubated and inverted for 1 hour at 4° C.
Once binding was complete, samples were loaded onto resin-retaining spin columns (e.g., emptied His Spin Trap™ columns; GE Healthcare). The columns were then inserted into a 2 mL microcentrifuge tube to retain the filtered solution during centrifugation. […] Finally, protein was eluted into a fresh microcentrifuge tube with three 0.2 mL elution buffer aliquots (this buffer was identical to binding buffer with the addition of 1 M imidazole).
The R. capsulatus LHI-RC complexes extracted and purified by this procedure contain large numbers of cofactors that have absorptions at distinct wavelengths, and each component of the LHI-RC superassembly has a different inherent stability outside the lipid bilayer. The solubilization protocol outlined above therefore provides a multifaceted assessment of the efficacy of conventional detergents and novel amphiphiles. UV-Vis absorption spectroscopy data obtained at various stages of the protocol allow one to determine which protein components have degraded at these stages. […] The disruption potential was measured as the yield of superassembly extracted during solubilization (or, alternatively and more precisely, as the absence of superassembly in the pellet from the spin following solubilization).
The stabilizing propensity was determined from the spectra of the purified protein.

[7] = 10 × CMC, scan from 25° C. to 85° C.
[8] = concentration not given, matches most favourable (*) Tm minus DDM 63.5

Chain of β2AR (P07550 whole entry): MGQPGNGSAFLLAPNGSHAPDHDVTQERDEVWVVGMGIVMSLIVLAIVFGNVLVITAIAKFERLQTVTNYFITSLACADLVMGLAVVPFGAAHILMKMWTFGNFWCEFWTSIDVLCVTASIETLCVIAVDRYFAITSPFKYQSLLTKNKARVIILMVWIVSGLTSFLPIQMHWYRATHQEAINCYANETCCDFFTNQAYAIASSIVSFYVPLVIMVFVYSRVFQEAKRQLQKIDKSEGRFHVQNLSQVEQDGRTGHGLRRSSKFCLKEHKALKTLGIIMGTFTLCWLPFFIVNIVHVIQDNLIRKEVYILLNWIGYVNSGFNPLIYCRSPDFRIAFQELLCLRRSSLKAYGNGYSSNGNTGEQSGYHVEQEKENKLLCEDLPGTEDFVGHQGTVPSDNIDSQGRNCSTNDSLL

| SMILES | Tm [4, 7] | Tm ([4]; 50 × CMC) | CMC [5] | CMC (%) [5] | Classification (entry in words) [6] | further results |
| --- | --- | --- | --- | --- | --- | --- |
| CCCCCCCCCCCCO[C@@H]1O[C@H](CO)[C@@H](O[C@H]2O[C@H](CO)[C@@H](O)[C@H](O)[C@H]2O)[C@H](O)[C@H]1O [DDM, dodecylmaltoside, reference compound] | 63.5 (n = 4)* | 63.0 (n = 4) |  |  |  | Outcome of LCP crystallization of agonist-bound β2AR [1]: not sufficiently stable to survive the transition to LCP; Specific binding to [3H]N-methylscopolamine ([2]; M3 receptor purified from baculovirus infected insect cells using the detergent): little specific binding; Tm [3]: 62.2 (n = 4) |
| CC(C)(C)c1ccc(OCC(COc2ccc(C(C)(C)C)cc2)(COC2OC(CO)C(O)C(O)C2O)COC2OC(CO)C(O)C(O)C2O)cc1 (stereo not drawn) [GNG-8] |  |  |  |  | aggregation |  |
| CCCCCCCC(CCCCCCC)(COC1OC(CO)C(O)C(O)C1O)COC1OC(CO)C(O)C(O)C1O (stereo not drawn) [GNG-9] |  |  | 0.11 mM | 0.0066% | limited |  |
| CC(C)(C)c1ccc(C(=O)NCC(CNC(=O)c2ccc(C(C)(C)C)cc2)(COC2OC(CO)C(O)C(O)C2O)COC2OC(CO)C(O)C(O)C2O)cc1 (stereo not drawn) [GNG-3] |  |  |  |  | aggregation |  |
| O=C(NCC(CNC(=O)C1CCCCC1)(COC1OC(CO)C(O)C(O)C1O)COC1OC(CO)C(O)C(O)C1O)C1CCCCC1 (stereo not drawn) [GNG-5] |  |  |  |  | Insoluble |  |

Second part, led by results:

| Tm [4, 7] | Tm ([4]; 50 × CMC) | CMC [5] | CMC (%) [5] | SMILES | Classification (entry in words) [6] | further results |
| --- | --- | --- | --- | --- | --- | --- |
| 67.4 (n = 3) | 68.4 (n = 3)* | 0.01 mM | 0.001% | CCCCCCCCCCC(CCCCCCCCCC)(COC1OC(CO)C(OC2OC(CO)C(O)C(O)C2O)C(O)C1O)COC1OC(CO)C(OC2OC(CO)C(O)C(O)C2O)C(O)C1O (stereo not drawn) [MNG-14] |  | Outcome of LCP crystallization of agonist-bound β2AR [1]: diffraction quality crystals were obtained; Binding (counts per minute (CPM)) of [3H]NMS compared to the use of DDM alone [2]: nine-fold higher; ΔTm ([3]; relative to DDM): +4.6; Tm [3]: 66.8 (n = 3); Stabilization of β2AR-T4L, comparison in words ([4]; 10 times CMC and 50 times CMC): best overall properties for stabilizing β2AR-T4L; ΔTm ([4]; 10 × CMC, relative to DDM): +3.9; ΔTm ([4]; 50 × CMC, relative to DDM): +5.4; ΔTm [4, 8]: +4.9 |
| 64.1 (n = 3) | 67.3 (n = 3)* | 0.0037 mM | 0.00038% | CCCCCCCCCCCC(CCCCCCCCCCC)(CO[C@H]1OC(CO)[C@H](O[C@@H]2OC(CO)[C@H](O)C(O)[C@H]2O)C(O)[C@H]1O)CO[C@H]1OC(CO)[C@H](O[C@@H]2OC(CO)[C@H](O)C(O)[C@H]2O)C(O)[C@H]1O (stereo partly drawn) [MNG-4] |  | ΔTm ([4]; 10 × CMC, relative to DDM): +0.6; ΔTm ([4]; 50 × CMC, relative to DDM): +4.3; ΔTm [4, 8]: +3.8 |
|  |  | 0.018 mM | 0.0018% | CCCCCCCCCC(CCCCCCCCC)(COC1OC(CO)C(OC2OC(CO)C(O)C(O)C2O)C(O)C1O)COC1OC(CO)C(OC2OC(CO)C(O)C(O)C2O)C(O)C1O (stereo not drawn) [MNG-28] |  | Binding (counts per minute (CPM)) of [3H]NMS compared to the use of DDM alone [2]: three-fold greater |
